Test results as given in ChEMBL document CHEMBL1149774, “Synthesis of N-(5,7-diamino-3-phenyl-quinoxalin-2-yl)-3,4,5-substituted anilines and N-[4[(5,7-diamino-3-phenylquinoxalin-2-yl)amino]benzoyl]-l-glutamic acid diethyl ester: evaluation of in vitro anti-cancer and anti-folate activities” (Eur J Med Chem, 2008).

How the values were obtained:
Assay type in all cases: functional
KM12 = assay: Growth inhibition of human KM12 cells after 48 hrs by SRB staining method; settings: KM12, 48 h
UACC-62 = assay: Growth inhibition of human UACC62 cells after 48 hrs by SRB staining method; settings: UACC-62, 48 h
TK-10 = assay: Growth inhibition of human TK10 cells after 48 hrs by SRB staining method; settings: TK-10, 48 h
RXF 393 = assay: Growth inhibition of human RXF393 cells after 48 hrs by SRB staining method; settings: RXF 393, 48 h
NCI-H522 = assay: Growth inhibition of human NCI-H522 cells after 48 hrs by SRB staining method; settings: NCI-H522, 48 h
MDA-MB-231 = assay: Growth inhibition of human MDA-MB-231 cells after 48 hrs by SRB staining method; settings: MDA-MB-231, 48 h
A549 = assay: Growth inhibition of human A549 cells after 48 hrs by SRB staining method; settings: A549, 48 h
SF-268 = assay: Growth inhibition of human SF268 cells after 48 hrs by SRB staining method; settings: SF-268, 48 h
OVCAR-5 = assay: Growth inhibition of human OVCAR5 cells after 48 hrs by SRB staining method; settings: OVCAR-5, 48 h
ACHN = assay: Growth inhibition of human ACHN cells after 48 hrs by SRB staining method
NCI/ADR-RES = assay: Growth inhibition of human NCI/ADR-RES cells after 48 hrs by SRB staining method
MDA-MB-435 = assay: Growth inhibition of human MDA-MB-435 cells after 48 hrs by SRB staining method; settings: MDA-MB-435, 48 h
NCI-H226 = assay: Growth inhibition of human NCI-H226 cells after 48 hrs by SRB staining method; settings: NCI-H226, 48 h
NCI-H23 = assay: Growth inhibition of human NCI-H23 cells after 48 hrs by SRB staining method; settings: NCI-H23, 48 h
OVCAR-8 = assay: Growth inhibition of human OVCAR8 cells after 48 hrs by SRB staining method; settings: OVCAR-8, 48 h
SK-MEL-28 = assay: Growth inhibition of human SK-MEL-28 cells after 48 hrs by SRB staining method; settings: SK-MEL-28, 48 h
RPMI-8226 = assay: Growth inhibition of human RPMI8226 cells after 48 hrs by SRB staining method; settings: RPMI-8226, 48 h
HOP-62 = assay: Growth inhibition of human HOP62 cells after 48 hrs by SRB staining method; settings: HOP-62, 48 h
Malme-3M = assay: Growth inhibition of human MALME-3M cells after 48 hrs by SRB staining method
OVCAR-4 = assay: Growth inhibition of human OVCAR4 cells after 48 hrs by SRB staining method; settings: OVCAR-4, 48 h
MCF7 = assay: Growth inhibition of human MCF7 cells after 48 hrs by SRB staining method; settings: MCF7, 48 h
M14 = assay: Growth inhibition of human M14 cells after 48 hrs by SRB staining method; settings: M14, 48 h
NCI-H322M = assay: Growth inhibition of human NCI-H322M cells after 48 hrs by SRB staining method
PC-3 = assay: Growth inhibition of human PC3 cells after 48 hrs by SRB staining method; settings: PC-3, 48 h
CAKI-1 = assay: Growth inhibition of human CAKI1 cells after 48 hrs by SRB staining method; settings: CAKI-1, 48 h
UO-31 = assay: Growth inhibition of human UO31 cells after 48 hrs by SRB staining method; settings: UO-31, 48 h
SK-MEL-5 = assay: Growth inhibition of human SK-MEL-5 cells after 48 hrs by SRB staining method; settings: SK-MEL-5, 48 h
HCT-116 = assay: Growth inhibition of human HCT116 cells after 48 hrs by SRB staining method; settings: HCT-116, 48 h
OVCAR-3 = assay: Growth inhibition of human OVCAR-3 cells after 48 hrs by SRB staining method; settings: OVCAR-3, 48 h
SNB-19 = assay: Growth inhibition of human SNB19 cells after 48 hrs by SRB staining method; settings: SNB-19, 48 h
[1] = read-out: pLC50 (the source's name) (converted)

## CCOC(=O)CCC(NC(=O)c1ccc(Nc2nc3cc(N)cc(N)c3nc2-c2ccccc2)cc1)C(=O)OCC (centres undefined)
KM12
  GI50: 28.2 µM
  LC50: > 100 µM
KM12; read-out: pTGI (converted)
  TGI: > 100 µM
UACC-62
  GI50: 3.55 µM
  LC50: 64.6 µM
UACC-62; read-out: pTGI (converted)
  TGI: 14.5 µM
TK-10
  GI50: 33.1 µM
TK-10; [1]
  CC50: > 100 µM
TK-10; read-out: pTGI (converted)
  TGI: 75.9 µM
RXF 393
  GI50: 24.5 µM
RXF 393; read-out: pTGI (converted)
  TGI: 85.1 µM
NCI-H522
  GI50: 27.5 µM
  LC50: > 100 µM
NCI-H522; read-out: pTGI (converted)
  TGI: > 100 µM
MDA-MB-231
  GI50: 8.91 µM
MDA-MB-231; [1]
  CC50: 81.3 µM
MDA-MB-231; read-out: pTGI (converted)
  TGI: 28.2 µM
A549
  GI50: 20 µM
A549; [1]
  CC50: > 100 µM
A549; read-out: pTGI (converted)
  TGI: > 100 µM
SF-268
  GI50: 23.4 µM
SF-268; [1]
  CC50: > 100 µM
SF-268; read-out: pTGI (converted)
  TGI: > 100 µM
OVCAR-5
  GI50: 34.7 µM
  LC50: > 100 µM
OVCAR-5; read-out: pTGI (converted)
  TGI: 87.1 µM
ACHN
  GI50: 12.9 µM
ACHN; [1]
  CC50: > 100 µM
ACHN; read-out: pTGI (converted)
  TGI: 46.8 µM
NCI/ADR-RES
  GI50: 19.5 µM
NCI/ADR-RES; [1]
  CC50: > 100 µM
NCI/ADR-RES; read-out: pTGI (converted)
  TGI: 63.1 µM
MDA-MB-435
  GI50: 12 µM
MDA-MB-435; [1]
  CC50: > 100 µM
MDA-MB-435; read-out: pTGI (converted)
  TGI: 36.3 µM
NCI-H226
  GI50: 26.9 µM
  LC50: > 100 µM
NCI-H226; read-out: pTGI (converted)
  TGI: 55 µM
NCI-H23
  GI50: 18.6 µM
  LC50: > 100 µM
NCI-H23; read-out: pTGI (converted)
  TGI: 55 µM
OVCAR-8
  GI50: 33.9 µM
OVCAR-8; [1]
  CC50: > 100 µM
OVCAR-8; read-out: pTGI (converted)
  TGI: > 100 µM
SK-MEL-28
  GI50: 1.51 µM
SK-MEL-28; [1]
  CC50: 5.89 µM
SK-MEL-28; read-out: pTGI (converted)
  TGI: 3.02 µM
RPMI-8226
  GI50: 3.16 µM
RPMI-8226; [1]
  CC50: > 100 µM
RPMI-8226; read-out: pTGI (converted)
  TGI: > 100 µM
HOP-62
  GI50: 19.5 µM
  LC50: 81.3 µM
HOP-62; read-out: pTGI (converted)
  TGI: 39.8 µM
Malme-3M
  GI50: 2.82 µM
  LC50: > 100 µM
Malme-3M; read-out: pTGI (converted)
  TGI: 6.17 µM
OVCAR-4
  GI50: 26.9 µM
  LC50: > 100 µM
OVCAR-4; read-out: pTGI (converted)
  TGI: > 100 µM
MCF7
  GI50: 29.5 µM
MCF7; [1]
  CC50: > 100 µM
MCF7; read-out: pTGI (converted)
  TGI: > 100 µM
M14
  GI50: 2.51 µM
  LC50: 75.9 µM
M14; read-out: pTGI (converted)
  TGI: 5.89 µM
NCI-H322M
  GI50: 41.7 µM
  LC50: > 100 µM
NCI-H322M; read-out: pTGI (converted)
  TGI: > 100 µM
PC-3
  GI50: 21.4 µM
PC-3; [1]
  CC50: > 100 µM
PC-3; read-out: pTGI (converted)
  TGI: 91.2 µM
CAKI-1
  GI50: 27.5 µM
CAKI-1; [1]
  CC50: > 100 µM
CAKI-1; read-out: pTGI (converted)
  TGI: > 100 µM
UO-31
  GI50: 21.9 µM
UO-31; [1]
  CC50: > 100 µM
UO-31; read-out: pTGI (converted)
  TGI: 75.9 µM
SK-MEL-5
  GI50: 6.61 µM
  LC50: > 100 µM
SK-MEL-5; read-out: pTGI (converted)
  TGI: 31.6 µM
HCT-116
  GI50: 15.1 µM
  LC50: > 100 µM
HCT-116; read-out: pTGI (converted)
  TGI: 51.3 µM
OVCAR-3
  GI50: 8.51 µM
  LC50: > 100 µM
OVCAR-3; read-out: pTGI (converted)
  TGI: 31.6 µM
SNB-19
  GI50: 21.4 µM
  LC50: > 100 µM
SNB-19; read-out: pTGI (converted)
  TGI: > 100 µM
